Literature values, collected in patent US20220333071A1, “METHODS OF MAKING, EXPANDING AND PURIFYING MIDBRAIN DOPAMINERGIC PROGENITOR CELLS” (BrainXell, Inc., priority 2021, published 2022).
Each block holds one compound with its values, some of them ahead of it.

How the values were obtained:
ALK-1 = ALK-1 (Homo sapiens, UniProt P37023); details: in vitro kinase assays
ALK-3 = ALK-3 (Homo sapiens, UniProt P36894); details: in vitro kinase assays
ALK5 = molecular target: T1, ALK5 (Homo sapiens, UniProt P36897)
T1 sequence (P36897 34-503): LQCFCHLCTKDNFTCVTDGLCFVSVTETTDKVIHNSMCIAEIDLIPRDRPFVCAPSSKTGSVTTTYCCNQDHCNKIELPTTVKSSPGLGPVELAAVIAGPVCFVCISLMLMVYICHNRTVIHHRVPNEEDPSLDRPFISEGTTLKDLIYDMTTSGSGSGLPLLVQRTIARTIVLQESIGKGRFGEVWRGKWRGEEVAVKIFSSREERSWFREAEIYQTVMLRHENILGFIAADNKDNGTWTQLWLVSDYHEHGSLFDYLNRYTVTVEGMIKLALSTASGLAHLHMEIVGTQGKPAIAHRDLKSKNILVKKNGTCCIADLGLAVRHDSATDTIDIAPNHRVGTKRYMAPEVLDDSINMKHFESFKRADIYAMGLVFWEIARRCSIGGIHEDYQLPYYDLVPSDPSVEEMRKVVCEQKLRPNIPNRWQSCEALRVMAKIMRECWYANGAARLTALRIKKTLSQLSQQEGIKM

KDR (VEGFR-2) = KDR (VEGFR-2) (Homo sapiens, UniProt P35968)
KDR (VEGFR-2), sequence (P35968 20-1356, species assumed): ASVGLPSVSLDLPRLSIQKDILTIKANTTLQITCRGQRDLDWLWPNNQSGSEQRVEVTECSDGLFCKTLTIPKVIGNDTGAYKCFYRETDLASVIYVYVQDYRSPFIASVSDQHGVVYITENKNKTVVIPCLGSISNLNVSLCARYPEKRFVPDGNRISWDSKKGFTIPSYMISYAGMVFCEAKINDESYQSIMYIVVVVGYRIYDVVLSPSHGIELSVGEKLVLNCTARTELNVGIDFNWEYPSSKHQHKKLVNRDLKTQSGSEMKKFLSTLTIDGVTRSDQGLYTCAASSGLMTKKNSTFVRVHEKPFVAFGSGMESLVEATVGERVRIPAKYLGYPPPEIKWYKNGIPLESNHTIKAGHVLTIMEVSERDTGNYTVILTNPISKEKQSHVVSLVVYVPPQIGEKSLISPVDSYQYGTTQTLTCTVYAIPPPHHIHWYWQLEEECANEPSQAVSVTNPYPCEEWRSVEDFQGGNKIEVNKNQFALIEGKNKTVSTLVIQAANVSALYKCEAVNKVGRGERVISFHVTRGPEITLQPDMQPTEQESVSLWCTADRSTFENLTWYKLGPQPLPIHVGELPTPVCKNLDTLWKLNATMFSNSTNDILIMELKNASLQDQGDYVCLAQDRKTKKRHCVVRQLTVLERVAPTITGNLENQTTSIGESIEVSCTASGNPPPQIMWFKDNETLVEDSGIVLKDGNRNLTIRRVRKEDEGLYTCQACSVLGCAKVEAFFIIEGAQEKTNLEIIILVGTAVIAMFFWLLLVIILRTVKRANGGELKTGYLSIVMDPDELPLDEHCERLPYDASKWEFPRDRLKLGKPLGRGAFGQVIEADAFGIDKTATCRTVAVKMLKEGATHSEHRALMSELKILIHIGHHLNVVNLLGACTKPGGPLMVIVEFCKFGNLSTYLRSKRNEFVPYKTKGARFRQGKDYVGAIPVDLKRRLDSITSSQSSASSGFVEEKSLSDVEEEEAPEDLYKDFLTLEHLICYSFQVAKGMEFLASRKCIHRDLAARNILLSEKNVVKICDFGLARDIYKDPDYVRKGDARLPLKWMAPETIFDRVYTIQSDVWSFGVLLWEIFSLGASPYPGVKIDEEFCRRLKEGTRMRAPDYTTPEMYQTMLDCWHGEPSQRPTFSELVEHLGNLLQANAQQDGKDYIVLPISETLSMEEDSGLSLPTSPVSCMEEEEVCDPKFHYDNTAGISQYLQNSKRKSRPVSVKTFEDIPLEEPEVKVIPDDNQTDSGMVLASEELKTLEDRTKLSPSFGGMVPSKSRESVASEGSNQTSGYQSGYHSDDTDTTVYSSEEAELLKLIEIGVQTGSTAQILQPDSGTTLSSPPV

PDGFRβ = PDGFRβ (Homo sapiens, UniProt P09619)
PDGFRβ, sequence (P09619 33-1106, species assumed): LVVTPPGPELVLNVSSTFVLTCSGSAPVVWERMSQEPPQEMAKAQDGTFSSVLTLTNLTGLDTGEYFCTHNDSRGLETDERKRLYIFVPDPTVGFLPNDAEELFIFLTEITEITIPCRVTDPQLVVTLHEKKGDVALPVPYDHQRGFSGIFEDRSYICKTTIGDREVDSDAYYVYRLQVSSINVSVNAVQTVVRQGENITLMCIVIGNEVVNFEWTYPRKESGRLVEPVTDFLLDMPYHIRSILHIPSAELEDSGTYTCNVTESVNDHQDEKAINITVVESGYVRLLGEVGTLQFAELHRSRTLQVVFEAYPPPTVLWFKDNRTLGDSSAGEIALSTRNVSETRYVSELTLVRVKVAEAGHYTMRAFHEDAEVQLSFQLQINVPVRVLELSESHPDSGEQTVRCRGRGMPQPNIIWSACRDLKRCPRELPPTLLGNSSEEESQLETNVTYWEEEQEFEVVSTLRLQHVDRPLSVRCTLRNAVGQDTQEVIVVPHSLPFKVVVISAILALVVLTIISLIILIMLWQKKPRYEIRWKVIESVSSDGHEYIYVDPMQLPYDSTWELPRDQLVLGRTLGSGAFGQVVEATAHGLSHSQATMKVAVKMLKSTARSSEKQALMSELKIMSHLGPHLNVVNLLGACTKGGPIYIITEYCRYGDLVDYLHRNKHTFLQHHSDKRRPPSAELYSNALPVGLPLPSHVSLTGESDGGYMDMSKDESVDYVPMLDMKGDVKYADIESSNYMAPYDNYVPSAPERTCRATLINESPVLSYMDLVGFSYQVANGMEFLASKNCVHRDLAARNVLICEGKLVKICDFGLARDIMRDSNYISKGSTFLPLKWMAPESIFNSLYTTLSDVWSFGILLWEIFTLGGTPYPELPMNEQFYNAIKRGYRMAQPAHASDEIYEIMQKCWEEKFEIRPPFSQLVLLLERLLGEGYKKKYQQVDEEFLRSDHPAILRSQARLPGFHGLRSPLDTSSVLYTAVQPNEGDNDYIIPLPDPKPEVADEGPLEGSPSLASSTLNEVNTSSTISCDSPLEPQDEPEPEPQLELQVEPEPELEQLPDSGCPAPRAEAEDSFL

[1] = test system: BMP4-induced phosphorylation of Smads 1, 5 and 8; details: HEK293 cells
[2] = test system: Wnt-mediated transcription; details: read-out: IC50, inhibition of Wnt-mediated transcription

ALK-3, sequence (P36894 24-532, species assumed): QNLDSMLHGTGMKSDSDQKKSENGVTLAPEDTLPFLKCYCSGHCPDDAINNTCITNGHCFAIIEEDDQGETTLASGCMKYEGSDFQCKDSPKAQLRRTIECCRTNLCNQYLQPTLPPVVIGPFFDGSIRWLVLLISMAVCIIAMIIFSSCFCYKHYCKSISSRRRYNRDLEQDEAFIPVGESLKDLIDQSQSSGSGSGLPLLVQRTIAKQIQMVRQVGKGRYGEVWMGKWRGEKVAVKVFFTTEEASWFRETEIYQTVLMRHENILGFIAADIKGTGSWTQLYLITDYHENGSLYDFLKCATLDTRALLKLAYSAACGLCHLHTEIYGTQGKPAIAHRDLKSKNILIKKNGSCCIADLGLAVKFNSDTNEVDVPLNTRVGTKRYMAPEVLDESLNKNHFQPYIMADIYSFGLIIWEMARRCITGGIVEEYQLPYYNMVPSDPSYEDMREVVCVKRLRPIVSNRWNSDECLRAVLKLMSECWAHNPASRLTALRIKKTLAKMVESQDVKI
ALK-1, sequence (P37023 22-503, species assumed): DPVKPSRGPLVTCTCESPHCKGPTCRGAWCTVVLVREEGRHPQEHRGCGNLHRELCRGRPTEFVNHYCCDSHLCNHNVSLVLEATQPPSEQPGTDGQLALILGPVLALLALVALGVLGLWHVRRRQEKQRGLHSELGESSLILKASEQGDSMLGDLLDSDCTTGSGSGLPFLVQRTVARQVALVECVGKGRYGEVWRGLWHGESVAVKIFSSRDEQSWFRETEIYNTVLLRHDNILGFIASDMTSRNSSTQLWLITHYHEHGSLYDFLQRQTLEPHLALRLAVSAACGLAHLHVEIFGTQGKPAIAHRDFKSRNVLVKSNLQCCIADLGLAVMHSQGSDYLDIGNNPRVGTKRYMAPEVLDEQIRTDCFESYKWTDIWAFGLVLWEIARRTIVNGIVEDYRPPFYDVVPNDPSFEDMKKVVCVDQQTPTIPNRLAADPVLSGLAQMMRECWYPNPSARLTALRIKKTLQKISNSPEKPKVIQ

IC50 values against rodent GSK3-β homologs (rodent GSK3-β homologs): nanomolar
Compound: Cc1c[nH]c(-c2cnc(NCCNc3ccc(C#N)cn3)nc2-c2ccc(Cl)cc2Cl)n1 [CHIR99021, 6-(2-(4-(2,4-dichlorophenyl)-5-(4-methyl-1H-imidazol-2-yl)pyrimidin-2-ylamino)ethylamino) nicotinonitrile]

selectivity for ALK-2 over ALK-1 (ALK-1): 6 fold | selectivity for ALK-2 over ALK-3 (ALK-3): 19 fold | inhibition of ALK5 (ALK5): no significant inhibition | inhibition of KDR (VEGFR-2) (KDR (VEGFR-2)): no significant inhibition | inhibition of PDGFRβ (PDGFRβ): no significant inhibition
Compound: CC(C)Oc1ccc(-c2cnc3c(-c4ccnc5ccccc45)cnn3c2)cc1 [DMH-1, 4-[6-[4-(1-Methylethoxy)phenyl]pyrazolo[1,5-a]pyrimidin-3-yl]-quinoline]
inhibition of AMPK (AMPK): no significant inhibition | BMP4-induced phosphorylation of Smads 1, 5 and 8 [1]: Blocks

IC50 [2]: 0.074 nM
Compound: Cc1cc(-c2ccc(CC(=O)Nc3ccc(-c4cccnc4)cc3)cc2)ccn1 [Wnt-059, 4-(2-Methyl-4-pyridinyl)-N-[4-(3-pyridinyl)phenyl]benzeneacetamide]
